{"source": "patent US6353124B1", "about": "“Therapeutic compound-fatty acid conjugates” (priority 1993, dated 2002)", "key": {"sunburn erythema [1]": {"system": "sunburn erythema", "settings": "2.5% in propylene glycol:ethanol:dimethylacetamide (19:19:2), 3 MED of UV light, guinea-pigs; cited from earlier work"}, "UVB induced burns": {"system": "UVB induced burns", "assay": "Effect on UVB induced burns in mice, topical application", "type": "in vivo", "procedure": "(§1) Method Groups of 3 female mice were exposed to 3 MED of UVB on their dorsal surface and then were immediately painted (by smoothing the topical solution over the dorsal surface) with 60 μl or 100 μl of vehicle or vehicle containing increasing concentrations of NSAID's or NSAID fatty acid conjugates. The vehicle used was a variation of previously published vehicles and consisted of ethanol:DMSO at a 5:1 ratio. The test NSAID's and their conjugates were either applied after UVB irradiation to reduce the possibility of sun-screening effects (Day 0), or 1 to 5 days prior to UVB exposure. The oedema was then determined by measuring the skin fold thickness (SFT) of a folded mid-dorsal piece of skin using a hand-held micrometer. Measurements were taken at 0 hours, just prior to UVB exposure and at 24 hours post UVB exposure. A control group, painted with 60 or 100 μl of the vehicle, was used to determine the increase in skin oedema due to the inflammatory response. […] The pre UVB SFT measurement was subtracted from the 24 hour SFT measurement, to determine the Net Skin Fold Thickness increase (NSFT).\nIndividual scores are presented for each mouse ie a result indicated as 5,4,3 is interperated as the first mouse having a severe burn, the second mouse a moderate to severe burn and the third mouse a moderate burn."}, "Skh-1 mouse": {"system": "Skh-1 mouse", "assay": "Toxicity and tolerability of topically applied indomethacin in Skh-1 mice", "type": "in vivo", "settings": "painted on dorsal surface, range 0.1% to 2.5% tested", "procedure": "as §1\nAs a preliminary study the ability of indomethacin to protect against oedema in Skh-1 mouse was determined. Indomethacin over a concentration range from 0.1% to 2.5% was applied after the mice had been irradiated with UVB; non-irradiated controls were also run. […]"}, "sunburn erythema [2]": {"system": "sunburn erythema", "settings": "2.5% in propylene glycol:ethanol:dimethylacetamide (19:19:2), 3 MED of UV light, humans; cited from earlier work"}, "UVB induced oedema": {"system": "UVB induced oedema", "assay": "UVB induced oedema (net skin fold thickness increase) in SKH-1 hairless mice, topical application", "type": "in vivo", "settings": "for Immediate Activity Results, highest to lowest (ranking): painted after 3 MED UVB, 4% ibuprofen equivalent (Ibu-ATP3 at 2%), FIG. 5; for effect on oedema at 2%: 2% ibuprofen, as the conjugate or as the free drug; for photoprotection against UVB induced oedema against interval of application: crude 2% (30% purity, contaminated with GTP2), 100 μl, days -5 to 0, FIG. 3", "procedure": "The vehicle used was a variation of previously published vehicles and consisted of ethanol:DMSO at a 5:1 ratio. […] The oedema was then determined by measuring the skin fold thickness (SFT) of a folded mid-dorsal piece of skin using a hand-held micrometer. Measurements were taken at 0 hours, just prior to UVB exposure and at 24 hours post UVB exposure. A control group, painted with 60 or 100 μl of the vehicle, was used to determine the increase in skin oedema due to the inflammatory response. […] The pre UVB SFT measurement was subtracted from the 24 hour SFT measurement, to determine the Net Skin Fold Thickness increase (NSFT)."}}, "note": "Read-outs that look alike come from different tables or passages of the source."}
{"compound": "COc1ccc2c(c1)c(CC(=O)O)c(C)n2C(=O)c1ccc(Cl)cc1", "note": "[indomethacin, 1-(4-Chlorobenzoyl)-5-methoxy-2-methyl-1H-indole-3-acetic acid]", "values": [{"measurement": "protection against sunburn erythema", "setting": "sunburn erythema [1]", "value": "total protection"}, {"measurement": "effect on burn repair", "setting": "UVB induced burns; indomethacin levels that prevent oedema", "value": "little or no effect on burn repair"}, {"measurement": "topical concentration lethal after 36 hours (gastrointestinal haemorrhage)", "setting": "Skh-1 mouse", "value": "≥ 2", "unit": "%"}, {"measurement": "protection against sunburn erythema", "setting": "sunburn erythema [2]", "value": "total protection"}, {"measurement": "anti-inflammatory effect at 0.1%", "setting": "UVB induced oedema; 0.1% applied after UVB, 24 hours", "value": "mild anti-inflammatory effect"}, {"measurement": "erythema and oedema with concentration", "setting": "UVB induced oedema; 0.1% to 2.5% applied after UVB", "value": "decrease in erythema and oedema with increasing concentrations"}, {"measurement": "protection against UVB induced oedema, applied 3 days prior to UVB", "setting": "UVB induced oedema; 1% indomethacin, 3 days prior to exposure, FIG. 2", "value": "approximately 50%"}, {"measurement": "protection against UVB induced oedema, applied 5 days prior to UVB", "setting": "UVB induced oedema; 1% indomethacin, 5 days prior to exposure, FIG. 2", "value": "not present"}, {"measurement": "protective effect on UVB induced oedema against interval of application", "setting": "UVB induced oedema; 100 μl of 1% solution, days -5 to -1 before UVB and Day 0, NSFT at 24 hours, FIG. 2", "value": "loses its protective effect on UVB induced oedema as the interval of application prior to exposure increases"}, {"measurement": "concentration giving maximal protection against erythema and oedema", "setting": "UVB induced oedema; applied after UVB, 24 hours, range 0.1% to 2.5%", "value": "≥ 1", "unit": "%"}]}
{"compound": "ibuprofen-alanine-Tris [Ibu-AT]", "values": [{"measurement": "Immediate Activity Results, highest to lowest (ranking)", "setting": "UVB induced oedema", "value": "4% Ibu=4% Ibu-ATP>4% Ibu-ATP2>4% Ibu-AT=2% Ibu-ATP3"}]}
{"compound": "ibuprofen-alanine-Tris-dipalmitate [Ibu-ATP2]", "values": [{"measurement": "Immediate Activity Results, highest to lowest (ranking)", "setting": "UVB induced oedema", "value": "4% Ibu=4% Ibu-ATP>4% Ibu-ATP2>4% Ibu-AT=2% Ibu-ATP3"}]}
{"compound": "ibuprofen-alanine-Tris-monopalmitate [Ibu ATP1]", "values": [{"measurement": "protective effect on UVB induced burns", "setting": "UVB induced burns; 2%, painted after 3 MED UVB, compared with unmodified ibuprofen", "value": "protective effect on UVB induced burns to a much greater extent than unmodified ibuprofen"}, {"measurement": "effect on oedema at 2%", "setting": "UVB induced oedema", "value": "little effect on oedema"}, {"measurement": "Immediate Activity Results, highest to lowest (ranking)", "setting": "UVB induced oedema", "value": "4% Ibu=4% Ibu-ATP>4% Ibu-ATP2>4% Ibu-AT=2% Ibu-ATP3"}]}
{"compound": "ibuprofen-alanine-Tris-tripalmitate [Ibu-ATP3]", "values": [{"measurement": "Immediate Activity Results, highest to lowest (ranking)", "setting": "UVB induced oedema", "value": "4% Ibu=4% Ibu-ATP>4% Ibu-ATP2>4% Ibu-AT=2% Ibu-ATP3"}]}
{"compound": "indomethacin-glycine-Tris-dipalmitate [Indo-GTP2]", "values": [{"measurement": "photoprotection against UVB induced oedema against interval of application", "setting": "UVB induced oedema", "value": "most protective 5 days prior to irradiation with UVB"}, {"measurement": "photoprotection against UVB induced oedema against interval of application", "setting": "UVB induced oedema; listed as indomethacin-glycine-Tris-dipalmitate", "value": "most pronounced at 5 days prior to exposure with UVB"}, {"measurement": "prolonged and immediate protective activity against UVB induced oedema", "setting": "UVB induced oedema; high purity, 2% (indomethacin equivalent), painted 5 days prior to or immediately after UVB, compared with Indo-GTP3, Indo-EP1, Indo-GEP1, FIG. 4", "value": "highest levels of prolonged and immediate activity"}]}
{"compound": "α-Methyl-4-(2-methylpropyl)benzene acetic acid [Ibu cont]", "values": [{"measurement": "effect on oedema at 2%", "setting": "UVB induced oedema", "value": "little effect on oedema"}, {"measurement": "Immediate Activity Results, highest to lowest (ranking)", "setting": "UVB induced oedema", "value": "4% Ibu=4% Ibu-ATP>4% Ibu-ATP2>4% Ibu-AT=2% Ibu-ATP3"}]}
